Drawing on patent US7045532B2 (Millennium Pharmaceuticals, Inc., priority 1999, dated 2006), this text covers Ki for 34 compounds.

The assay has as its target T1, ACE-2 (Homo sapiens, UniProt Q9BYF1).
T1 construct: a stop codon inserted after the serine immediately preceding the transmembrane domain; made in house; host or cells: CHO K1 cells (transient transfection, purified from conditioned medium)
The assay can be described thus: ACE-2 Competitive Substrate Assay (ACS Assay). The class given is biochemical.

Where [1] appears, read: Ki class, compounds tested in 5% DMSO, 12 compound concentrations, Ki=Kiapp/(1+[S]/Km), read-out: Human ACE-2 Activity.
Where [2] appears, read: Table 3, very good ACE-2 inhibiting compounds, species not given, read-out: ACE-2 Activity, Ki.
Where [3] appears, read: Ki class per key, compounds tested in 5% DMSO, 12 compound concentrations, 25° C., Ki=Kiapp/(1+[S]/Km), read-out: Human ACE-2 Activity.

Where two headings read alike, the source gives them in different places.

T1 sequence (Q9BYF1 18-740 limits assumed): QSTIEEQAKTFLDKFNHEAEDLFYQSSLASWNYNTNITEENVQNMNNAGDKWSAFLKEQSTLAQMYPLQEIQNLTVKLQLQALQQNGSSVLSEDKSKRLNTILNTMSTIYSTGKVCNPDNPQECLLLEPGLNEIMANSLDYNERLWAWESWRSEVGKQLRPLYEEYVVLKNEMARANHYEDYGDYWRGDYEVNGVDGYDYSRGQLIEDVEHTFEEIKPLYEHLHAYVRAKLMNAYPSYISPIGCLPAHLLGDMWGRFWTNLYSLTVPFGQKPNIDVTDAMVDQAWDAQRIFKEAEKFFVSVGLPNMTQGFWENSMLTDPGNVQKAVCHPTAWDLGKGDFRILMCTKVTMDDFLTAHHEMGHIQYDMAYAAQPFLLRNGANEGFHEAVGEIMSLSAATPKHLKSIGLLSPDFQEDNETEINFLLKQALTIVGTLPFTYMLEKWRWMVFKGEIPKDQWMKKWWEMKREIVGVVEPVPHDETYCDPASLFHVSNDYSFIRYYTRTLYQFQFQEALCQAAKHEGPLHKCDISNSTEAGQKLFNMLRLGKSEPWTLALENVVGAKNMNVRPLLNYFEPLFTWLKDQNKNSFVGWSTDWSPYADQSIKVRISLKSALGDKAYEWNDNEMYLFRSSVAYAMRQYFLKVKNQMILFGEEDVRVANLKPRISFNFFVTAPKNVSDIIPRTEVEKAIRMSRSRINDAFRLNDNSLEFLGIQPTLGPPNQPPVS

For the compound `CC(C)C[C@H](N[C@@H](Cn1ccn(Cc2ccc(F)c(F)c2)c1=O)C(=O)O)C(=O)O` [OU, 2-[1-Carboxy-2-[3-(3,4-difluoro-benzyl)-2-oxo-2,3-dihydro-imidazol-1-yl]-ethylamino]-4-methyl-pentanoic acid], the Ki under setting [1] fell in the range of 100 to 500 nM.

In the case of `CC(C)C[C@H](N[C@@H](CCC(=O)Nc1nc2ccc(F)cc2s1)C(=O)O)C(=O)O` [OV, (S,S)-2-[1-Carboxy-3-(6-fluoro-benzothiazol-2-ylcarbamoyl)-propylamino]-4-methyl-pentanoic acid], the Ki under setting [1] is greater than 500 nM.

Consider `CC(C)C[C@H](N[C@@H](Cn1ccn(Cc2cc(F)ccc2F)c1=O)C(=O)O)C(=O)O` [OW, 2-[1-Carboxy-2-[3-(2,5-difluoro-benzyl)-2-oxo-2,3-dihydro-imidazol-1-yl]-ethylamino]-4-methyl-pentanoic acid], for which the Ki under setting [1] is less than 100 nM and the Ki under setting [2] lay within 50 to 100 nM.

Regarding `CC(C)C[C@H](N[C@@H](Cc1ccc(NC(=O)c2cc(F)cc(F)c2)cc1)C(=O)O)C(=O)O` [OX, (S,S) 2-{1-Carboxy-2-[4-(3,5-difluoro-benzoylamino)-phenyl]-ethylamino}-4-methyl-pentanoic acid], the Ki by setting is: under setting [3], less than 100 nM; under setting [2], less than 50 nM.

In the case of `CC(C)C[C@H](N[C@@H](Cc1ccc(-c2ccc(F)cc2)cc1)C(=O)O)C(=O)O` [OY, (S,S)-[1-Carboxy-2-(4′-fluoro-biphenyl-4-yl)-ethylamino]-4-methyl-pentanoic acid], the Ki reads like this: under setting [3], less than 100 nM; under setting [2], less than 50 nM.

For the compound `CC(C)C[C@H](N[C@@H](Cc1ccc(-c2ccc3c(c2)OCO3)cc1)C(=O)O)C(=O)O` [OZ, 2-[2-(4-Benzo[1,3]dioxol-5-yl-phenyl)-1-carboxy-ethylamino]-4-methyl-pentanoic acid], the Ki was less than 100 nM under setting [3] and 50 to 100 nM under setting [2].

As to `CC(C)C[C@H](N[C@@H](Cc1ccc(-c2csc3ccccc23)cc1)C(=O)O)C(=O)O` [PA, 2-[2-(4-Benzo[b]thiophen-3-yl-phenyl)-1-carboxy-ethylamino]-4-methyl-pentanoic acid], the Ki under setting [3] is less than 100 nM and the Ki under setting [2] was less than 50 nM.

As to `CC(C)C[C@H](N[C@@H](Cc1cccc(Cc2ccccc2)c1)C(=O)O)C(=O)O` [PB, (S,S)-2-[2-(3-Benzyl-phenyl)-1-carboxy-ethylamino]-4-methyl-pentanoic acid], the Ki under setting [3] is greater than 500 nM.

As for `CC(C)C[C@H](N[C@@H](Cc1ccc(-c2ccc(C(F)(F)F)cc2)cc1)C(=O)O)C(=O)O` [PC, (S,S)-2-[1-Carboxy-2-(4′-trifluoromethyl-biphenyl-4-yl)-ethylamino]-4-methyl-pentanoic acid], the Ki was less than 100 nM under setting [3] and 50 to 100 nM under setting [2].

In the case of `CC(C)C[C@H](N[C@@H](Cc1ccc(NS(=O)(=O)c2ccccc2)cc1)C(=O)O)C(=O)O` [PE, (S,S) 2-[2-(4-Benzenesulfonylamino-phenyl)-1-carboxy-ethylamino]-4-methyl-pentanoic acid], the Ki under setting [3] was greater than 500 nM.

For `CC(C)C[C@H](N[C@@H](Cc1cccc(Cc2cccc(Cl)c2)c1)C(=O)O)C(=O)O` [PF, 2-[1-Carboxy-2-[3-(3-chloro-benzyl)-phenyl]-ethylamino]-4-methyl-pentanoic acid], under setting [3], the Ki is 100 to 500 nM.

In the case of `CC(C)C[C@H](N[C@@H](Cc1cccc(Cc2cc(Cl)cc(Cl)c2)c1)C(=O)O)C(=O)O` [PG, (S,S)-2-{1-Carboxy-2-[3-(3,5-dichloro-benzyl)-phenyl]-ethylamino}-4-methyl-pentanoic acid], the Ki under setting [3] was in the range of 100 to 500 nM.

Take `CC(C)C[C@H](N[C@@H](Cc1cccc(OCc2csc3ccc(Cl)cc23)c1)C(=O)O)C(=O)O` [PH, S,S-2-{1-Carboxy-2-[3-(5-chloro-benzo[b]thiophen-3-ylmethoxy)-phenyl]-ethylamino}-4-methyl-pentanoic acid]: the Ki runs as follows: under setting [3], less than 100 nM; under setting [2], less than 50 nM.

`CC(C)C[C@H](N[C@@H](Cc1ccc(-c2ccccn2)cc1)C(=O)O)C(=O)O` [PI, (S,S)-2-[1-Carboxy-2-(4-pyridin-2-yl-phenyl)-ethylamino]-4-methyl-pentanoic acid]: the Ki is less than 100 nM under setting [3] and 50 to 100 nM under setting [2].

In the case of `CC(C)C[C@H](N[C@@H](Cc1ccc(-c2cccnc2)cc1)C(=O)O)C(=O)O` [PJ, (S,S)-2-[1-Carboxy-2-(4-pyridin-3-yl-phenyl)-ethylamino]-4-methyl-pentanoic acid], the Ki is less than 100 nM under setting [3] and 50 to 100 nM under setting [2].

As to `CC(C)C[C@H](N[C@@H](Cc1ccc(-c2ccncc2)cc1)C(=O)O)C(=O)O` [PK, (S,S)-2-[1-Carboxy-2-(4-pyridin-4-yl-phenyl)-ethylamino]-4-methyl-pentanoic acid], the Ki under setting [3] lay in the range of 100 to 500 nM.

Regarding `C[C@H](N[C@@H](Cc1cncn1Cc1cc(Cl)cc(Cl)c1)C(=O)O)C(=O)O` [PL, (S,S) 2-(1-Carboxy-ethylamino)-3-[3-(3,5-dichloro-benzyl)-3H-imidazol-4-yl]-propionic acid], the Ki is less than 100 nM under setting [3] and less than 50 nM under setting [2].

Turning to `C[C@@H](N[C@@H](Cc1cncn1Cc1cc(Cl)cc(Cl)c1)C(=O)O)C(=O)O` [PM, 2-(1-Carboxy-ethylamino)-3-[3-(3,5-dichloro-benzyl)-3H-imidazol-4-yl]-propionic acid], under setting [3], the Ki is greater than 500 nM.

Take `O=C(O)[C@H](CCc1ccccc1)N[C@@H](Cc1cncn1Cc1cc(Cl)cc(Cl)c1)C(=O)O` [PN, (S,S) 2-{1-Carboxy-2-[3-(3,5-dichloro-benzyl)-3H-imidazol-4-yl]-ethylamino}-4-phenyl-butyric acid]: the Ki is less than 100 nM under setting [3] and less than 50 nM under setting [2].

As for `CC(C)C[C@H](N[C@@H](Cc1ccc(-n2cccc2)cc1)C(=O)O)C(=O)O` [PO, 2-[1-Carboxy-2-(4-pyrrol-1-yl-phenyl)-ethylamino]-4-methyl-pentanoic acid], the Ki reads like this: under setting [3], greater than 500 nM; under setting [2], less than 50 nM.

In the case of `CC(C)C[C@H](N[C@@H](Cn1ccn(CCc2ccccc2F)c1=O)C(=O)O)C(=O)O` [PP, 2-(1-Carboxy-2-{3-[2-(2-fluoro-phenyl)-ethyl]-2-oxo2,3-dihydro-imidazol-1-yl}-ethylamino)-4-methyl-pentanoic acid], the Ki under setting [3] is greater than 500 nM.

With `CC(C)C[C@H](N[C@@H](CC#Cc1cc(Cl)cc(Cl)c1)C(=O)O)C(=O)O` [PR, 2-(1-Carboxy-3-methyl-butylamino)-5-(3,5-dichloro-phenyl)-pent-4-ynoic acid], the Ki under setting [3] was greater than 500 nM.

Take `CC(C)C[C@H](N[C@@H](Cc1ccc(Oc2cc(F)cc(F)c2)cc1)C(=O)O)C(=O)O` [PS, 2-[1-Carboxy-2-[4-(3,5-difluoro-phenoxy)-phenyl]-ethylamino]-4-methyl-pentanoic acid]: the Ki under setting [3] was greater than 500 nM.

Take `CC(C)C[C@H](N[C@@H](Cc1ccccc1-c1cc(Cl)cc(Cl)c1)C(=O)O)C(=O)O` [PT, S,S-2-[1-Carboxy-2-(3′,5′dichloro-biphenyl-2-yl)-ethylamino]-4-methyl-pentanoic acid]: the Ki under setting [3] was 100 to 500 nM.

With `CC(C)C[C@H](N[C@@H](Cc1ccc(C(=O)OC(C)(C)C)cc1)C(=O)O)C(=O)O` [PU, (S,S) 4-[2-Carboxy-2-(1-carboxy-3-methyl-butylamino)-ethyl]-benzoic acid tert-butyl ester], under setting [3], the Ki was less than 100 nM.

For the compound `CC(C)C[C@H](N[C@@H](CN1C(=O)CN(Cc2cc(F)cc(F)c2)C1=O)C(=O)O)C(=O)O` [PW, 2-[1-Carboxy-2-[3-(3,5-difluoro-benzyl)-2,5-dioxo-imidazolidin-1-yl]-ethylamino]-4-methyl-pentanoic acid], the Ki under setting [3] is less than 100 nM.

In the case of `CC(C)C[C@H](N[C@@H](CN1C(=O)CN(Cc2cc(Cl)cc(Cl)c2)C1=O)C(=O)O)C(=O)O` [PX, 2-[1-Carboxy-2-[3-(3,5-dichloro-benzyl)-2,5-dioxo-imidazolidin-1-yl]-ethylamino]-4-methyl-pentanoic acid], the Ki under setting [3] is less than 100 nM.

Regarding `CC(C)C[C@H](N[C@@H](CN1C(=O)CN(Cc2ccc(C(F)(F)F)cc2C(F)(F)F)C1=O)C(=O)O)C(=O)O` [PY, 2-[2-[3-(2,4-Bis-trifluoromethyl-benzyl)-2,5-dioxo-imidazolidin-1-yl]-1-carboxy-ethylamino]-4-methyl-pentanoic acid], the Ki under setting [3] was greater than 500 nM.

`Cc1ccc(-c2ccc(C[C@H](N[C@@H](CC(C)C)C(=O)O)C(=O)O)cc2)nc1` [PZ, (S,S)-2-{1-Carboxy-2-[4-(5-methyl-pyridin-2-yl)-phenyl]-ethylamino}-4-methyl-pentanoic acid]: the Ki under setting [3] was less than 100 nM and the Ki under setting [2] is less than 50 nM.

As to `Cc1ccnc(-c2ccc(C[C@H](N[C@@H](CC(C)C)C(=O)O)C(=O)O)cc2)c1` [QA, (S,S)-2-{1-Carboxy-2-[4-(4-methyl-pyridin-2-yl)-phenyl]-ethylamino}-4-methyl-pentanoic acid], the Ki reads like this: under setting [3], less than 100 nM; under setting [2], 50 to 100 nM.

On to `CCOc1ccnc(-c2ccc(C[C@H](N[C@@H](CC(C)C)C(=O)O)C(=O)O)cc2)c1Cl` [QB, (S,S)-2-{1-Carboxy-2-[4-(3-chloro-4-ethoxy-pyridin-2-yl)-phenyl]-ethylamino}-4-methyl pentanoic acid], for which the Ki is, setting by setting: under setting [3], less than 100 nM; under setting [2], 50 to 100 nM.

As to `CC(C)C[C@H](N[C@@H](Cc1ccc(-c2cnc3ccccc3c2)cc1)C(=O)O)C(=O)O` [QC, (S,S)-2-[1-Carboxy-2-(4-quinolin-3-yl-phenyl)-ethylamino]-4-methyl-pentanoic acid], the Ki under setting [3] is less than 100 nM and the Ki under setting [2] was less than 50 nM.

With `CC(C)C[C@H](N[C@@H](Cc1ccc(C(=O)NCc2cc(F)cc(F)c2)cc1)C(=O)O)C(=O)O` [QD, 2-[1-Carboxy-2-[4-(3,5-difluoro-benzylcarbamoyl)phenyl]-ethylamino]-4-methyl-pentanoic acid], the Ki under setting [3] was greater than 500 nM.

Regarding `CC(C)C[C@H](N[C@@H](Cc1ccc(C(=O)Nc2cc(Cl)cc(Cl)c2)cc1)C(=O)O)C(=O)O` [QE, 2-[1-Carboxy-2-[4-(3,5-dichloro-phenylcarbamoyl)-phenyl]ethylamino]-4-methyl-pentanoic acid], the Ki reads like this: under setting [3], less than 100 nM; under setting [2], less than 50 nM.
